Data published in patent US20070015733A1, “Aryl Phosphate Derivatives of d4T having Activity Against Resistant HIV Strains” (Parker Hughes Institute, priority 1998, published 2007).
Where two headings read alike, the source gives them in different places.

Legend:
[1] = tested on: NRTI-resistant recombinant HIV-1 isolates; assay: p24 assay, multi-NRTI-resistant recombinant HIV-1 clones; type: cell-based
[2] = tested on: zidovudine-resistant primary clinical HIV-1 isolates; assay: p24 drug susceptibility assay, NRTI-/zidovudine-resistant primary clinical HIV-1 isolates in PBMC; type: cell-based
Description: Viruses. […] The HIV-1 strains HTLVIIIB (wildtype RT, NRTI-sensitive, NNRTI-sensitive), A17 (Y181 C mutant, NNRTI-resistant), A17-variant (Y181C+K103N mutant, NNRTI-resistant), and RT-MDR (M41 L, V106N, T215Y; NRTI-resistant, NNRTI-resistant) were also obtained from the AIDS Research and Reference Reagent Program, NIAID.
Antiviral susceptibility assays. Phenotypic drug susceptibility studies of HIV-1 isolates and strains were performed by measuring the production of the p24 gag protein in peripheral blood mononuclear cells (PBMC) from seronegative healthy volunteers in the presence of increasing concentrations of the anti-HIV agent using the quantitative Coulter HIV-1 p24 antigen ezyme immunoassay (EIA) and HIV-1 p24 Antigen Kinetic Standard (Beckman Coulter), as previously described (Uckun, 1998, Antimicrobial Agents and Chemotherapy 37(4): 835-38). Informed consent was obtained from the blood donors according to DHHS guidelines using consent forms approved by the Institutional Review Board. In brief, PBMC were cultured for 72 h in RPMI 1640 medium (Gibco) supplemented with 20% (vol/vol) heat-inactivated fetal bovine serum, 5% human interleukin-2 (Zeptometrix), 2 mM L-glutamine, 25 mM HEPES, 2 g/L NaHCO3, 100 U/ml penicillin/streptomycin (Gibco), 50 μg/ml gentamicin (Gibco), and 5 μg/ml phytohemagglutinin-P (PHA-P) (Sigma) for 24-72 hours prior to exposure to HIV at a multiplicity of infection of 0.001-0.1 during a 1-h adsorbtion period at 37±1° C. in a humidified 5-7% CO2 atmosphere. Subsequently, cells were cultured in 96-well microtiter plates (100 μl/well; 2×10^6 cells/ml, triplicate wells) in the presence of the anti-HIV agents at 6-7 different concentrations ranging from 0.0001 μM to 100 μM, and 25 μL aliquots of culture supernatants were removed from the wells on day 6 after infection for p24 EIA, as previously described (Uckun, 1998, Antimicrobial Agents and Chemotherapy, 37(4):835-38). Controls included uninfected and untreated cells (background control) and infected but untreated (virus control) cells. The p24 EIA utilizes a murine monoclonal antibody to HIV core protein used to coat microwell strips to which the antigen present in the test culture supernatant samples binds. Percent inhibition of viral replication was calculated by comparing the p24 values from the test substance-treated infected cells with p24 values from untreated infected cells (i.e., virus controls). The IC50 values were determined using the Statview statistics program (SAS Institute, Inc.). In parallel, the effects of various treatments on cell viability were also examined as previously described (Uckun, 1998, Antimicrobial Agents and Chemotherapy, 42:383-388). In brief, noninfected PBMC were treated with each compound for 5 days under identical experimental conditions. A microculture tetrazolium assay (MTA) was performed to quantitate cellular proliferation (Uckun, 1998, Antimicrobial Agents and Chemotherapy, 42:383-388).
Phenotypic drug susceptibility studies of HIV-1 isolates and strains were performed by measuring the production of the p24 gag protein in peripheral blood mononuclear cells (PBMC) from seronegative healthy volunteers in the presence of increasing concentrations of the anti-HIV agent using the quantitative Coulter HIV-1 p24 antigen enzyme immunoassay (EIA) and HIV-1 p24 Antigen Kinetic Standard (Beckman Coulter), as previously described. StatView was used in the calculation of the IC50 values from each set of triplicate wells using the linearized form of an exponential equation (lnY=lnb0+b1X; where Y=% inhibition, X=drug concentration). The inhibition constants were log10 transformed to homogenize the variances within each group. […] P-values below 0.05 were deemed significant (JMP Software, SAS).

Structure (SMILES): Cc1cn([C@H]2C[C@H](N=[N+]=[N-])[C@@H](CO)O2)c(=O)[nH]c1=O [AZT, 3′-azido-3′-deoxythymidine]
- IC50 ([1]; Human immunodeficiency virus 1, read-out: IC50 (nM), p24, recombinant clone 1617-1 (151 complex)): 320 nM
- IC50 ([1]; Human immunodeficiency virus 1, read-out: IC50 (nM), p24, recombinant clone 4755-5): 165 nM
- IC50 ([1]; Human immunodeficiency virus 1, read-out: IC50 (nM), p24, recombinant clone 7295-1): 137 nM
- IC50 ([1]; Human immunodeficiency virus 1, read-out: IC50 (nM), p24, recombinant clone 7324-1): > 1000 nM
- IC50 ([1]; Human immunodeficiency virus 1, read-out: IC50 (nM), p24, recombinant clone 52252-1 in Table 18, 56252-1 in Tables 19 and 20 (K65R, 151 complex)): > 1000 nM
- IC50 ([1]; Human immunodeficiency virus 1, read-out: IC50 (nM), p24, recombinant clone printed 52534-1 in Table 18, 52534-2 in Tables 19 and 20 (69 insertion complex)): > 1000 nM
- IC50 ([1]; Human immunodeficiency virus 1, read-out: mean IC50 value, recombinant clones with 151 complex or 69 insertion complex (Group 3+Group 4)): 773 ± 227 nM
- IC50 ([2]; Human immunodeficiency virus 1, PBMC, isolate 92BR019 (D67N, L214F, T215D, K219Q), PBMC): 0.2 µM
- IC50 ([2]; Human immunodeficiency virus 1, PBMC, isolate C140 (M41L, M184V, T215Y), PBMC): 0.1 µM
- IC50 ([2]; Human immunodeficiency virus 1, PBMC, isolate C140, PBMC, p24): 0.1 µM
- IC50 ([2]; Human immunodeficiency virus 1, PBMC, isolate C467-4 (K20R, D67N, K70R, Y188L, T215F, K219Q), PBMC): 3.2 µM
- IC50 ([2]; Human immunodeficiency virus 1, PBMC, isolate G190-6, PBMC, p24): > 3.2 µM
- IC50 ([2]; Human immunodeficiency virus 1, PBMC, isolate G691-2 (mutations N.D.), PBMC): 2.6 µM
- IC50 ([2]; Human immunodeficiency virus 1, PBMC, isolate G704-2, PBMC, p24): 1.8 µM
- IC50 ([2]; Human immunodeficiency virus 1, PBMC, isolate G780-1 (M41L, D67N, K70R, T215F, K219Q), PBMC): > 3.2 µM
- IC50 ([2]; Human immunodeficiency virus 1, PBMC, isolate G780-1, PBMC, p24): > 3.2 µM
- IC50 ([2]; Human immunodeficiency virus 1, PBMC, isolate G890-1 (K20R, M41L, D67N, T69N, K70R, L210W, T215Y), PBMC): > 3.2 µM
- IC50 ([2]; Human immunodeficiency virus 1, PBMC, isolate G890-1, PBMC, p24): > 3.2 µM
- IC50 ([2]; Human immunodeficiency virus 1, PBMC, isolate P798-1 (M41L, T215Y), PBMC): 1.8 µM
- IC50 ([2]; Human immunodeficiency virus 1, PBMC, isolate Q252-2 (M41L, L210W, T215Y), PBMC): 1.7 µM
- IC50 ([2]; Human immunodeficiency virus 1, PBMC, isolate R416-10 (M41L, T215Y), PBMC): 0.3 µM
- IC50 ([2]; Human immunodeficiency virus 1, PBMC, isolate S159-2 (M41L, K103N, T215Y), PBMC): 0.7 µM
- IC50 ([2]; Human immunodeficiency virus 1, PBMC, isolate S762-4 (M41L, T215Y), PBMC): 1.2 µM
- IC50 ([2]; Human immunodeficiency virus 1, PBMC, isolate T156-3 (M41L, E44D, D67N, T69D, L210W, T215Y), PBMC): > 3.2 µM
- IC50 ([2]; Human immunodeficiency virus 1, PBMC, isolate T156-3, PBMC, p24): > 3.2 µM
- IC50 ([2]; Human immunodeficiency virus 1, PBMC, isolate X165-8 (D67N, T69N, K70R, K103N, Y181C, T215F, K219E), PBMC): 0.9 µM
- IC50 ([2]; Human immunodeficiency virus 1, PBMC, isolate X165-9 (K20R, D67N, K103N, T215Y), PBMC): 0.9 µM
- IC50 ([2]; Human immunodeficiency virus 1, PBMC, isolate X267-1 (L74V), PBMC, p24): 0.6 µM
- IC50 ([2]; Human immunodeficiency virus 1, PBMC, isolate X267-1 (M41L, L74V, L210W, T215Y), PBMC): 0.6 µM
- IC50 ([2]; Human immunodeficiency virus 1, PBMC, isolate X267-2 (M41L, T215Y), PBMC): 0.4 µM
- IC50 ([2]; Human immunodeficiency virus 1, PBMC, isolate X267-5 (M41L, F116S, T215Y), PBMC): 0.6 µM
- IC50 ([2]; Human immunodeficiency virus 1, PBMC, isolate Y270-7 (M41W, Y188L, T215N), PBMC): 1.5 µM
- IC50 ([2]; Human immunodeficiency virus 1, PBMC, read-out: IC50, μM, Mean ± SE, mean over 20 zidovudine-resistant primary clinical isolates): 1.6 ± 0.5 µM
- IC50 ([2]; Human immunodeficiency virus 1, PBMC, read-out: mean IC50 value, NRTI-resistant isolates with 5 thymidine analog mutations (Group 1 in Table 19)): 2.6 µM
- IC50 ([2]; Human immunodeficiency virus 1, PBMC, read-out: mean IC50 value, isolates with M184V plus multiple thymidine analog mutations (Group 2 in Table 19)): 0.134 ± 0.0188 µM
- IC50 ([2]; isolate G704-2 (M41L, D67N, K70R, L210W, T215Y), PBMC, listed as zidovudine): > 10 µM
- IC50 ([2]; isolate G910-6 (M41L, D67N, K70R, T215Y, K219Q), PBMC, listed as ZDV(AZT)): > 3.2 µM
- IC50 ([2]; isolate G910-6 (M41L, D67N, K70R, T215Y, K219Q), PBMC, listed as zidovudine): > 10 µM
